Laboratory results reported in patent US20260193296A1 (priority 2023, published 2026).
Like-named read-outs stand apart in the source and are kept apart here. Ends that are not written are not given here.

Legend:
[1] = system: Huanglongbing pathogen CLas; format: cell-based, Candidatus Liberibacter asiaticus (CLas); details: for CLas titer in infected leaf midribs: 1 μM artificially synthesized peptide; for number of pathogens in citrus infected with Huanglongbing: summary statement, demonstrated by experiments
CLas cells = format: cell-based, Candidatus Liberibacter asiaticus (CLas); details: for lysis of Huanglongbing pathogens: summary statement, demonstrated by experiments
[2] = system: Huanglongbing pathogen CLas; format: cell-based, Candidatus Liberibacter asiaticus (CLas); details: for inhibitory effect on CLas after heat pretreatment: used at 1 μM, 48 h, compared with BSA, FIG. 4D
[3] = system: Huanglongbing pathogen CLas; format: in vivo, Candidatus Liberibacter asiaticus (CLas)
Huanglongbing pathogens = format: in vivo, citrus (Chunmi orange); details: field, whole plant, same injection method, two months after treatment; FIG. 6
[4] = system: Huanglongbing pathogen CLas; details: for IC50: read-out: CLas half inhibitory concentration (IC50), treated for 48 hours, FIG. 4C

Sequence	CLas titer in infected leaf midribs ([1]; 48 h, FIG. 4A)	number of pathogens in citrus infected with Huanglongbing [1]	lysis of Huanglongbing pathogens (CLas cells)	also measured
MKKVKNIFHKIANA [AMP-α, contains only an α-helix fragment]	not able to change the CLas titer	–	–	–
DPMIWGYVMLSESKDPMIWGYVMLNDSK [AMP-2β, dimer of β-sheet fragments obtained by prokaryotic expression and purification]	–	reduce the number of pathogens	promote lysis of Huanglongbing pathogens	–
DPMIWGYVMLNDRLSK [AMP9-16, truncated peptide of AMP9]	significantly reduce the CLas titer	reduce the number of pathogens	promote lysis of Huanglongbing pathogens	–
DPMIWGYVMLSESK [AMP3-14, DPMIWGYVMLSESK]	significantly reduce the CLas titer	reduce the number of pathogens	promote lysis of Huanglongbing pathogens	CLas titer in infected leaf veins ([1]; 100 nM artificially synthesized peptide, 48 h, FIG. 4A): significantly reduce the CLas titer; thermal stability ([2]; 35° C. and 45° C. for 20 hours): good thermal stability; inhibitory effect on CLas after heat pretreatment ([2]; pretreated at 35° C. for 20 hours): still significant; inhibitory effect on CLas after heat pretreatment ([2]; pretreated at 45° C. for 20 hours): still significant; symptoms of yellowing in leaves of infected plants ([3]; 1 μM solution, continuous trunk infusion, 6 months, FIG. 5B): disappeared; Ct value of CLas in infected plants ([3]; 1 μM solution, continuous trunk infusion, 6 months, FIG. 5C): not significantly different from that of healthy plants; Ct value of CLas in treated plants after removal of treatment ([3]; treatment removed after 7 months, titer monitored continuously): still not significantly different from that of healthy plants; growth of new citrus leaves (Huanglongbing pathogens): significantly promote the growth of new citrus leaves; destruction of pathogenic cells compared with AMP3 (transmission electron microscope) (CLas cells; 1 μM, 24 hours, FIG. 7): better effect on the destruction of pathogenic cells; effectiveness in reducing the CLas titer compared with AMP3 ([4]; from IC50 values at 48 hours): more effective in reducing the CLas titer; IC50 [4]: 1 µM
MKKVKNIFHKIANADPMIWGYVMLSESK [AMP3]	significantly reduce the CLas titer	reduce the number of pathogens	promote lysis of Huanglongbing pathogens	IC50 [4]: 52.1 µM
MKKVKNIFHKIANADPMIWGYVML [AMP3-24, truncated peptide of AMP3]	–	reduce the number of pathogens	promote lysis of Huanglongbing pathogens	–
DPMIWGYVMLNDSK [AMP-β, variant containing conserved β-sheet region; synthesized and also made by prokaryotic expression]	significantly reduce the CLas titer	reduce the number of pathogens	promote lysis of Huanglongbing pathogens	–
MKKVKNIFHKIANADPMIWGYVMLNDRLSK [AMP9]	significantly reduce the CLas titer	reduce the number of pathogens	promote lysis of Huanglongbing pathogens	–
